Source: article PMC3914206

Experiments:
panel of 442 kinases [1] = target: T1, panel of 442 kinases (Homo sapiens, UniProt O15146); assay type: binding; conditions: Compound Concentration 10 µM
T1 construct: purchased KINOMEscan
T1 sequence (O15146 24-869): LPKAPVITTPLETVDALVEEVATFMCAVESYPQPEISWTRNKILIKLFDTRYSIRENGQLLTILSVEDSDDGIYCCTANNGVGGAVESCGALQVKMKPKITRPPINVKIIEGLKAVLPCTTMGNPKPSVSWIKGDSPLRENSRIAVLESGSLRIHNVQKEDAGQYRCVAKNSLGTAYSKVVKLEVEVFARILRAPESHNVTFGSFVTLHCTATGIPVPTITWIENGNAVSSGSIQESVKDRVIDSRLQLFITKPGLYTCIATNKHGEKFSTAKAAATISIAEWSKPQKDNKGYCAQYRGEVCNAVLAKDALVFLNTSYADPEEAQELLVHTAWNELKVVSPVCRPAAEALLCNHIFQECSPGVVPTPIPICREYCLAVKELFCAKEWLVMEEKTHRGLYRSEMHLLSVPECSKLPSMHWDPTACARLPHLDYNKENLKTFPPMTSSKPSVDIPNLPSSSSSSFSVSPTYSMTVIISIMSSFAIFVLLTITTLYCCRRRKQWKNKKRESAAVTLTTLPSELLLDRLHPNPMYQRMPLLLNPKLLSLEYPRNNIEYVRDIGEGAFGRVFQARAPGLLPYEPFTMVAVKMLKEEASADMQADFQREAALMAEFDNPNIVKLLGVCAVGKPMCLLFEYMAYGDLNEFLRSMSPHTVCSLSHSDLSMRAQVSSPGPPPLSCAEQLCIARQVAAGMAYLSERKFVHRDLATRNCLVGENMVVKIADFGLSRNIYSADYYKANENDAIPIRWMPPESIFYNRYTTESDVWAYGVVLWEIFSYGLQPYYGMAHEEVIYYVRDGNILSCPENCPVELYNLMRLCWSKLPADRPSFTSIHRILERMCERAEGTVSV
From the text: (§1) We assessed the selectivity of members of this scaffold using the KINOMEscan methodology across a near comprehensive panel of 442 kinases [[18,27]].

panel of 442 kinases [2] = target: T2, panel of 442 kinases (Homo sapiens, UniProt P41743); assay type: binding; conditions: Compound Concentration 10 µM
T2 construct: purchased KINOMEscan
T2 sequence (P41743 1-596): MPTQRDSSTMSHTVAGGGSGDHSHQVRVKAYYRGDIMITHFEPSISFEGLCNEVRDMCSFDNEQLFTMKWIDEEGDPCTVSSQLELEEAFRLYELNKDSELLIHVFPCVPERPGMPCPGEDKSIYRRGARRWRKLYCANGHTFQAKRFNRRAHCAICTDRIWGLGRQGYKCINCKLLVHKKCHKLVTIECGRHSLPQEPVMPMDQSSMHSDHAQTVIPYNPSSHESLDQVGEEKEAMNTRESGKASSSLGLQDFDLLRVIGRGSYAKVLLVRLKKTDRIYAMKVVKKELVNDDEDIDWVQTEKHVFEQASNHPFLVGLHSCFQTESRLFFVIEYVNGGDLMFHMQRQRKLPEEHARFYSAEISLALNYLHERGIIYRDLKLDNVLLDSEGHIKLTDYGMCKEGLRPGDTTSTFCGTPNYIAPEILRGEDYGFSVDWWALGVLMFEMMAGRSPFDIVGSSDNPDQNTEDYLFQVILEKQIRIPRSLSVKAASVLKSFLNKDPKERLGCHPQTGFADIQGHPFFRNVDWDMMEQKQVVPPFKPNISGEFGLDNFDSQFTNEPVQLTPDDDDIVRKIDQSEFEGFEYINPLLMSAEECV
From the text: as §1

Compound | KINOMEscan: MUSK (panel of 442 kinases [1]) | KINOMEscan: PRKCI (panel of 442 kinases [2])
CCOc1cc(C(=O)N2CCC(N3CCN(C)CC3)CC2)ccc1Nc1ncc2c(n1)N(C1CCCC1)c1ccccc1C(=O)N2C [Compound 26] | 100 | 95
COc1cc(C(=O)N2CCC(N3CCN(C)CC3)CC2)ccc1Nc1ncc2c(n1)N(C1CCCC1)c1ccccc1C(=O)N2C [Compound 25, 11-cyclopentyl-2-((2-methoxy-4-(4-(4-methylpiperazin-1-yl)piperidine-1-carbonyl)phenyl)amino)-5-methyl-5H-benzo[e]pyrimido[5,4-b][1,4]diazepin-6(11H)-one] | 100 | 100
COc1cc(C(=O)N2CCC(N3CCN(C)CC3)CC2)ccc1Nc1ncc2c(n1)N(C)c1ccccc1C(=O)N2C [15 (LRRK2-IN-1)] | 99 | 100
